Values of other authors, collected in patent US8287898B2, “Compositions and methods for body weight management” (The Procter & Gamble Company, priority 2000, dated 2012).
Like-named read-outs stand apart in the source and are kept apart here.

Legend:
[1] = sham feeding rat model
[2] = jejunally infused neat, 0.2 mL/hr for seven hours, rats
[3] = solutions infused in the duodenum or mid-gut (jejunum), or into the colon; rats, three hours of feeding

Row | Compound | total caloric intake ([1]; duodenally infused emulsion) | total caloric intake ([1]; ileal infusion) | total daily caloric intake [2] | total caloric intake [3]
1 | CCCCC/C=C\C/C=C\CCCCCCCC(=O)O [linoleic acid] | reduce total caloric intake | do not | significantly reduce | –
2 | N[C@@H](Cc1c[nH]c2ccccc12)C(=O)O [tryptophan] | – | – | – | suppressed total caloric intake
3 | CC/C=C\C/C=C\C/C=C\CCCCCCCC(=O)O [linolenic] | somewhat less effective | – | – | –
4 | N[C@@H](Cc1ccccc1)C(=O)O [phenylalanine] | – | – | – | suppressed total caloric intake
5 | CCCCCCCC/C=C\CCCCCCCC(=O)O [oleic acid] | somewhat less effective | – | significantly reduce | –
